These antisense oligonucleotides have a phosphorothioate backbone; sugars and methylation of C are not fully specified.
Each sequence was assayed against GNA11. Conditions: ASO.
Further: test concentration or dose not given here.

Row | Sequence | remaining target (mRNA or protein) (fraction of control)
1 | TGTAGAGGATCTTGAGCG | ≥ 1
2 | TGTCACGTTCTCAAAGCA | ≥ 1
3 | TGTCCTCCTCCGAGTAGC | ≥ 1
4 | TGTTCTCCAGGTCGAAAG | 0.67
5 | TGTTCTGGTAGACGAGCT | ≥ 1
6 | TTGGCCTTGTTCTGCTCG | ≥ 1

Each sequence was assayed against TRADD. Conditions: ASO.

Row | Sequence | remaining target (mRNA or protein) (fraction of control)
7 | AAACTGTAAGGGCTGGCT | 0.91
8 | AAAGATCAAGGTGCTTCA | ≥ 1
9 | AAAGTCTGGGCAGGTGGC | 0.56
10 | AAGGTGAGGCTGATCTCC | 0.72
11 | AATAGCCGCAGAAGGAAC | 0.83
12 | ACCCTAAGGCCATCCAGG | 0.64
13 | ACTTTATTATCATTGCTT | 0.66
14 | AGATTTCGCAGCGCATCC | ≥ 1
15 | AGCGGCACCGAGTGCTGG | ≥ 1
16 | AGCTCCAGTTGCAGCGGC | 0.82
17 | AGCTGCCATCTCACCTCC | ≥ 1
18 | AGTGAGCGCCCCACCTTG | 0.98
19 | AGTGCTGGGCGAGCGCGG | ≥ 1
20 | AGTTGCAGCGGCACCGAG | ≥ 1
21 | ATGAAGTCCAGGACACCA | ≥ 1
22 | CAAGATTGATTCCTGTTT | 0.94
23 | CACCCACTCTTCGTGCCC | ≥ 1
24 | CAGCGCCCGGCAGCCTCG | ≥ 1
25 | CAGGCCGCCATTGGGATC | ≥ 1
26 | CATTTGAGACCCACAGAG | 0.83
27 | CCACCTTGTCCAGCGAGG | 0.59
28 | CCACGCTGAGTGTGAGCT | 0.68
29 | CCCACCCCACACTCTATC | 0.47
30 | CCCAGCAAGTCCTCTGCC | 0.75
31 | CCCCGAGCCGCACTTCAG | 0.77

Row | Sequence | remaining target (mRNA or protein) (fraction of control)
32 | CCCGCCGCTCTCTGCCAA | ≥ 1
33 | CCCTCGCGCTCGTACTCG | 0.42
34 | CCGAAGCGACCTCCCCGT | ≥ 1
35 | CCGACAGAGAGGGCACCG | ≥ 1
36 | CCGTGTTATACTTTATTA | ≥ 1
37 | CGATTCACTACAGGCTGA | 0.86
38 | CGCAGCGCATCCTCCAGC | 0.99
39 | CGGTCGGGCTGCTGGGCT | ≥ 1
40 | CGTAGGCCAGCGAGTCCA | ≥ 1
41 | CTCACCTCCTGGCCGCCT | 0.76
42 | CTCTTCGTGCCCATTTTG | 0.89
43 | CTGTTTTACTTCACTGCA | ≥ 1
44 | CTTGCGCCATTTGAGACC | 0.7
45 | GACCCTGGAACAGAAAAG | 0.9
46 | GAGGACTCCACAAACAGG | 0.93
47 | GAGGCAGAATCCCCAATG | ≥ 1
48 | GAGTCCAGCGCCGGGTCC | 0.48
49 | GATGCAACTCAAACAGCG | ≥ 1
50 | GCACGAAGCGCCGCAGCA | ≥ 1
51 | GCAGGTCCAGCAGATAGG | 0.9
52 | GCATCCGACAGGACCACC | 0.93
53 | GCCAGCAAAGCGTCCAGC | ≥ 1
54 | GCCCGCAGAATCGCAGCT | 0.75
55 | GCCGCACTTCAGATTTCG | ≥ 1
56 | GCGGCGGCGGCGGCTTCA | ≥ 1
